Data reported in article PMC9508756, “Selected coffee (Coffea arabica L.) extracts inhibit intestinal α-glucosidases activities in-vitro and postprandial hyperglycemia in SD Rats” (BMC Complementary Medicine and Therapies, 2022).

Assays:
[1] = target: rat intestinal α-glucosidase; assay: Rat small intestinal α-glucosidase inhibition assay (pNPG substrate); assay type: biochemical
Protocol: In order to investigate the inhibitory effect of coffee extracts on the absorption of glucose, rat intestinal α-glucosidase inhibitory activity was determined using the substrate p-nitrophenyl-α-D-glucopyranoside (pNPG) according to [28] with a slight modification. A total of 0.6 g of rat-intestinal acetone powder was suspended in 9 mL of 0.1 M sodium phosphate buffer 0.9%, and the suspension was sonicated for 12 times 30 s at 4 °C. It was then centrifuged (13,000 × g, 30 min, 4 °C), and the resulting supernatant was used for the assay. […] Absorbance was measured at 405 nm and compared to a control that had 50 μL of buffer solution in place of the extract by Micro-Plate Reader (SpectraMAx® i3, Molecular devices LLC., Wals, Austria). The rat α-glucosidase inhibitory activity was expressed as percent inhibition and was calculated as follows: Inhibition%=ΔAControl405-ΔAExtract405/ΔAControl405×100
All data are presented as mean ± S.D. Statistical analyses were carried out using the statistical packages SPSS 11 (Statistical Package for Social Science 11, SPSS Inc., Chicago, IL, USA) program and the significance of each group was verified with the analyses of one-way ANOVA followed by Duncan’s test of p < 0.05. In addition, statistical significances in the animal study were determined by Student’s t-test (*p < 0.05; **p < 0.01; and *** p < 0.001). […]

Sprague–Dawley (SD) rats [2] = assay: Sucrose loading test, postprandial blood glucose in SD rats; assay type: in vivo, rat; conditions: sucrose 2.0 g/kg oral, extracts 0.5 g/kg, Acarbose 5.0 mg/kg, mean ± S.D., n = 5
Text: (§1) All animal procedures were approved by the Institutional Animal Care and Use Com-[…]) of […] University (Approval number: HNU2016-0015-1). This study is reported in accordance with ARRIVE guidelines (https://arriveguidelines.org). Four-week-old male Sprague-Dawley (SD) rats were purchased from Joongang Experimental Animal Co. (Seoul, Korea) and fed with a standard diet (Samyang Diet Co., Seoul, Korea) and with water ad libitum for one week. Effect on hyperglycemia-induced by carbohydrate loads in Sprague-Dawley (SD) rats was determined by the inhibitory action of coffee extracts on postprandial hyperglycemia as described in [30]. […] In the case of the administration group, administration samples were prepared by mixing starch or sugar with coffee extracts by dose in advance were orally administrated using a zonde injection needle. […] The glucose level in blood was determined by the glucose oxidase method and compared with that of the control group. The parameters for blood glucose levels will be calculated Maximum observed peak blood glucose level (Cmax) and the time at which it is observed (Tmax) were determined based on the observed data. […] In addition, statistical significances in the animal study were determined by Student's t-test (*p < 0.05; **p < 0.01; and *** p < 0.001). […]

Sprague–Dawley (SD) rats [3] = assay: Starch loading test, postprandial blood glucose in SD rats; assay type: in vivo, rat; conditions: extracts 0.5 g/kg
Text: as §1

IC50 rat intestinal α-glucosidase ([1]; Ethanol extract row): < 500 µg/mL | IC50 rat intestinal α-glucosidase ([1]; Water extract row): < 500 µg/mL
Compound: C[C@H]1O[C@H](O[C@H]2[C@H](O)[C@@H](O)[C@@H](O[C@H]3[C@H](O)[C@@H](O)C(O)O[C@@H]3CO)O[C@@H]2CO)[C@H](O)[C@@H](O)[C@@H]1N[C@H]1C=C(CO)[C@@H](O)[C@H](O)[C@H]1O (some centres unmarked) [Acarbose, acarbose]
AUCt (blood glucose-time curve) (Sprague–Dawley (SD) rats [2]): 376.2 ± 17.2^*** hr·mg/dL | AUCt (blood glucose-time curve) (Sprague–Dawley (SD) rats [3]; starch 2.0 g/kg oral, Acarbose 5.0 mg/kg, mean ± S.D., n = 5): 389.0 ± 36.8^*** hr·mg/dL | blood glucose level after starch loading compared to control (Sprague–Dawley (SD) rats [3]; starch 2.0 g/kg, Acarbose 5 mg/kg oral): significantly higher blood lowering than all the coffee types and the controls
